Assay results as given in patent publication US12077503B2, “Substituted cyclic amides and their use as herbicides” (FMC CORPORATION, priority 2015, dated 2024).

Columns and labels:
Format in all cases: in vivo
[1] = system: barnyardgrass (Echinochloa crus-galli); assay: Test G Post-Emergence Protocol; conditions: Echinochloa crus-galli, post-emergence, 312 h, read-out: Barnyardgrass damage rating; for pest or weed control at 15.625 g/ha: 15.625 g ai/ha, evaluated after 13 days (100=total damage to plant; 0=no damage to plant); for pest or weed control at 62.5 g/ha: 62.5 g ai/ha; for pest or weed control at 62.5 g/ha / pest or weed control at 250 g/ha: evaluated after 13 days, 100=total damage to plant, 0=no damage to plant; for pest or weed control at 250 g/ha: 250 g ai/ha
Summary of the method: (§1)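 Pot-grown seedlings, 8 days old, raised in a glasshouse at 24/16 °C day/night with 14 h light and 65% humidity, were sprayed post-emergence with test compound in acetone/water (50:50) plus 0.5% Tween 20 at 15.625, 62.5 or 250 g/ha. Damage was scored visually 13 days later on a 0–100 scale (100 = total damage).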

[2] = system: redroot pigweed (Amaranthus retroflexus); assay: Test G Post-Emergence Protocol; conditions: Amaranthus retroflexus, post-emergence, 312 h, read-out: Pigweed, Redroot damage rating; for pest or weed control at 15.625 g/ha: 15.625 g ai/ha, evaluated after 13 days (100=total damage to plant; 0=no damage to plant); for pest or weed control at 62.5 g/ha: 62.5 g ai/ha; for pest or weed control at 62.5 g/ha / pest or weed control at 250 g/ha: evaluated after 13 days, 100=total damage to plant, 0=no damage to plant; for pest or weed control at 250 g/ha: 250 g ai/ha
Summary of the method: as §1

[3] = system: velvetleaf (Abutilon theophrasti); assay: Test G Post-Emergence Protocol; conditions: Abutilon theophrasti, post-emergence, 312 h, read-out: Velvetleaf damage rating; for pest or weed control at 15.625 g/ha: 15.625 g ai/ha, evaluated after 13 days (100=total damage to plant; 0=no damage to plant); for pest or weed control at 62.5 g/ha: 62.5 g ai/ha; for pest or weed control at 62.5 g/ha / pest or weed control at 250 g/ha: evaluated after 13 days, 100=total damage to plant, 0=no damage to plant; for pest or weed control at 250 g/ha: 250 g ai/ha
Summary of the method: as §1

[4] = system: corn (Zea mays); assay: Test G Post-Emergence Protocol; conditions: Zea mays, post-emergence, 312 h, read-out: Corn damage rating; for plant injury at 15.625 g/ha: 15.625 g ai/ha, evaluated after 13 days (100=total damage to plant; 0=no damage to plant); for plant injury at 62.5 g/ha: 62.5 g ai/ha; for plant injury at 62.5 g/ha / plant injury at 250 g/ha: evaluated after 13 days, 100=total damage to plant, 0=no damage to plant; for plant injury at 250 g/ha: 250 g ai/ha
Summary of the method: as §1

[5] = system: ivy-leaved morning glory (Ipomoea hederacea); assay: Test G Post-Emergence Protocol; conditions: Ipomoea, post-emergence, 312 h, read-out: Morningglory, Ivy-leaved damage rating; for pest or weed control at 15.625 g/ha: 15.625 g ai/ha, evaluated after 13 days (100=total damage to plant; 0=no damage to plant); for pest or weed control at 62.5 g/ha: 62.5 g ai/ha; for pest or weed control at 62.5 g/ha / pest or weed control at 250 g/ha: evaluated after 13 days, 100=total damage to plant, 0=no damage to plant; for pest or weed control at 250 g/ha: 250 g ai/ha
Summary of the method: as §1

[6] = system: giant foxtail (Setaria faberi); assay: Test G Post-Emergence Protocol; conditions: Setaria faberi, post-emergence, 312 h, read-out: Foxtail, Giant damage rating; for pest or weed control at 15.625 g/ha: 15.625 g ai/ha, evaluated after 13 days (100=total damage to plant; 0=no damage to plant); for pest or weed control at 62.5 g/ha: 62.5 g ai/ha; for pest or weed control at 62.5 g/ha / pest or weed control at 250 g/ha: evaluated after 13 days, 100=total damage to plant, 0=no damage to plant; for pest or weed control at 250 g/ha: 250 g ai/ha
Summary of the method: as §1

[7] = system: barnyardgrass (Echinochloa crus-galli); assay: Test G Pre-Emergence Protocol; conditions: Echinochloa crus-galli, pre-emergence, 312 h, evaluated after 13 days; for pest or weed control at 15.625 g/ha: 15.625 g ai/ha; for pest or weed control at 15.625 g/ha / pest or weed control at 250 g/ha: read-out: Barnyardgrass damage rating (100=total damage to plant; 0=no damage to plant); for pest or weed control at 62.5 g/ha: 62.5 g ai/ha, 100=total damage to plant, 0=no damage to plant, read-out: Barnyardgrass damage rating; for pest or weed control at 250 g/ha: 250 g ai/ha
Summary of the method: (§2)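 Under a 24/16° C day/night regime with 14 h light and 65% humidity, sown pots were sprayed after one day with compound (15.625, 62.5 or 250 g/ha; 50:50 acetone/water, 0.5% Tween 20). Damage was assessed visually 13 days later, 0 to 100.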

[8] = system: redroot pigweed (Amaranthus retroflexus); assay: Test G Pre-Emergence Protocol; conditions: Amaranthus retroflexus, pre-emergence, 312 h, evaluated after 13 days; for pest or weed control at 15.625 g/ha: 15.625 g ai/ha; for pest or weed control at 15.625 g/ha / pest or weed control at 250 g/ha: read-out: Pigweed, Redroot damage rating (100=total damage to plant; 0=no damage to plant); for pest or weed control at 62.5 g/ha: 62.5 g ai/ha, 100=total damage to plant, 0=no damage to plant, read-out: Pigweed, Redroot damage rating; for pest or weed control at 250 g/ha: 250 g ai/ha
Summary of the method: as §2

[9] = system: velvetleaf (Abutilon theophrasti); assay: Test G Pre-Emergence Protocol; conditions: Abutilon theophrasti, pre-emergence, 312 h, evaluated after 13 days; for pest or weed control at 15.625 g/ha: 15.625 g ai/ha; for pest or weed control at 15.625 g/ha / pest or weed control at 250 g/ha: read-out: Velvetleaf damage rating (100=total damage to plant; 0=no damage to plant); for pest or weed control at 62.5 g/ha: 62.5 g ai/ha, 100=total damage to plant, 0=no damage to plant, read-out: Velvetleaf damage rating; for pest or weed control at 250 g/ha: 250 g ai/ha
Summary of the method: as §2

[10] = system: corn (Zea mays); assay: Test G Pre-Emergence Protocol; conditions: Zea mays, pre-emergence, 312 h, evaluated after 13 days; for plant injury at 15.625 g/ha: 15.625 g ai/ha; for plant injury at 15.625 g/ha / plant injury at 250 g/ha: read-out: Corn damage rating (100=total damage to plant; 0=no damage to plant); for plant injury at 62.5 g/ha: 62.5 g ai/ha, 100=total damage to plant, 0=no damage to plant, read-out: Corn damage rating; for plant injury at 250 g/ha: 250 g ai/ha
Summary of the method: as §2

[11] = system: ivy-leaved morning glory (Ipomoea hederacea); assay: Test G Pre-Emergence Protocol; conditions: Ipomoea, pre-emergence, 312 h, evaluated after 13 days; for pest or weed control at 15.625 g/ha: 15.625 g ai/ha; for pest or weed control at 62.5 g/ha: 62.5 g ai/ha, 100=total damage to plant, 0=no damage to plant, read-out: Morningglory, Ivy-leaved damage rating
Summary of the method: as §2

[12] = system: giant foxtail (Setaria faberi); assay: Test G Pre-Emergence Protocol; conditions: Setaria faberi, pre-emergence, 312 h, evaluated after 13 days; for pest or weed control at 15.625 g/ha: 15.625 g ai/ha; for pest or weed control at 15.625 g/ha / pest or weed control at 250 g/ha: read-out: Foxtail, Giant damage rating (100=total damage to plant; 0=no damage to plant); for pest or weed control at 62.5 g/ha: 62.5 g ai/ha, 100=total damage to plant, 0=no damage to plant, read-out: Foxtail, Giant damage rating; for pest or weed control at 250 g/ha: 250 g ai/ha
Summary of the method: as §2

[13] = read-out: Morningglory, Ivy-leaved damage rating (100=total damage to plant; 0=no damage to plant)

| SMILES | pest or weed control at 15.625 g/ha [1] [%] | pest or weed control at 62.5 g/ha [1] [%] | pest or weed control at 250 g/ha [1] [%] | pest or weed control at 15.625 g/ha [2] [%] | pest or weed control at 62.5 g/ha [2] [%] | pest or weed control at 250 g/ha [2] [%] | pest or weed control at 15.625 g/ha [3] [%] | pest or weed control at 62.5 g/ha [3] [%] | pest or weed control at 250 g/ha [3] [%] | plant injury at 15.625 g/ha [4] [%] | plant injury at 62.5 g/ha [4] [%] | plant injury at 250 g/ha [4] [%] | pest or weed control at 15.625 g/ha [5] [%] | pest or weed control at 62.5 g/ha [5] [%] | pest or weed control at 250 g/ha [5] [%] | pest or weed control at 15.625 g/ha [6] [%] | pest or weed control at 62.5 g/ha [6] [%] | pest or weed control at 250 g/ha [6] [%] | pest or weed control at 15.625 g/ha [7] [%] | pest or weed control at 62.5 g/ha [7] [%] | further results |
| --- | --- | --- | --- | --- | --- | --- | --- | --- | --- | --- | --- | --- | --- | --- | --- | --- | --- | --- | --- | --- | --- |
| CN1C[C@@H](c2ccc(C(F)(F)F)cc2)[C@H](C(=O)Nc2cnc(Cl)cn2)C1=O (racemic) [Compound 1649] | 0 | 0 | 20 | 0 | 0 | 40 | 0 | 0 | 0 | 0 | 0 | 0 | 0 | 0 | 0 | 0 | 0 | 60 | 0 | 0 | pest or weed control at 250 g/ha [7]: 0%; pest or weed control at 15.625 g/ha [8]: 0%; pest or weed control at 62.5 g/ha [8]: 20%; pest or weed control at 250 g/ha [8]: 20%; pest or weed control at 15.625 g/ha [9]: 0%; pest or weed control at 62.5 g/ha [9]: 0%; pest or weed control at 250 g/ha [9]: 0%; plant injury at 15.625 g/ha [10]: 0%; plant injury at 62.5 g/ha [10]: 0%; plant injury at 250 g/ha [10]: 0%; pest or weed control at 15.625 g/ha [11, 13]: 0%; pest or weed control at 62.5 g/ha [11]: 0%; pest or weed control at 250 g/ha ([11]; 250 g ai/ha, read-out: Morningglory, Ivy-leaved damage rating (100=total damage to plant; 0=no damage to plant)): 0%; pest or weed control at 15.625 g/ha [12]: 0%; pest or weed control at 62.5 g/ha [12]: 10%; pest or weed control at 250 g/ha [12]: 20% |
| Cc1nc(F)ccc1NC(=O)[C@@H]1C(=O)N(C)C[C@H]1c1ccc(C(F)(F)F)cc1 (racemic) [Compound 1654] | 0 | 20 | 60 | 10 | 20 | 30 | 0 | 20 | 40 | 0 | 0 | 20 | 10 | 20 | 30 | 20 | 40 | 80 | 0 | 0 | pest or weed control at 250 g/ha [7]: 80%; pest or weed control at 15.625 g/ha [8]: 0%; pest or weed control at 62.5 g/ha [8]: 0%; pest or weed control at 250 g/ha [8]: 0%; pest or weed control at 15.625 g/ha [9]: 0%; pest or weed control at 62.5 g/ha [9]: 0%; pest or weed control at 250 g/ha [9]: 10%; plant injury at 15.625 g/ha [10]: 0%; plant injury at 62.5 g/ha [10]: 0%; plant injury at 250 g/ha [10]: 20%; pest or weed control at 15.625 g/ha [11, 13]: 0%; pest or weed control at 62.5 g/ha [11]: 0%; pest or weed control at 15.625 g/ha [12]: 20%; pest or weed control at 62.5 g/ha [12]: 60%; pest or weed control at 250 g/ha [12]: 90% |
